This is an account of results in patent US20110251128A1, “THYMOSIN Beta4 PEPTIDES PROMOTE TISSUE REGENERATION” (The Board of Regents of the University of Texas System, priority 2010, published 2011).

“Also recorded” adds a separate entry of the source.

The subject of assay [1] is myocardial cells. Put plainly: Beating frequency of myocardial cells in embryonic cardiac explants on collagen gel. The class given is cell-based, mouse. Particulars: 300 ng peptide or 100 ng TB4; normalized to PBS and TB4 controls (TB4 = 100.00). As to the method:
In vitro embryonic cardiac cell migration assay. The outflow tract of the heart was dissected from E11.5 wild-type mouse embryos and placed on rat-tail collagen matrix (Roche) endothelial layer facing down as described (Bock-Marquette et al., 2004; Runyan and Markwald, 1983). After 10 h of attachment, three independent explants were incubated with 300 ng of peptide #1-17, 100 ng of TB4, or 3 μl PBS in […] OPTIMEM medium (Invitrogen/Gibco) respectively. Medium and protein were changed every two days. To monitor migration distance photos were taken daily using Nikon DXM1200F microscope at 4× magnification. Cell migration distance was quantified by ImageJ software (http at rsb.info.nih.gov/ij/) in three separate explants and three measurements for each treatment respectively. Beating frequency of myocardial cells was counted three times at 7-15 days of treatment. Calculations were normalized to PBS and TB4 treated positive and negative controls. After 15 days at 37° C. in 5% CO2, explants were fixed in 4% paraformaldehyde in PBS for 10 min at room temperature. Explants were stored at 4° C. in PBS for further immunocytochemical investigations.

The subject of assay [2] is Akt. Kind of assay: Western blot anti-phosphoS473-Akt on heart lysates after coronary ligation. The class given is in vivo, mouse. Particulars: 24 hours after treatment. From the text: (§1) Animals and Surgical procedures. Mice: Myocardial infarctions were produced in seventy C57BL/6J male mice at 16 weeks of age (25-30 g) by ligation of the left anterior descending (LAD) coronary artery as described (Garner et al., 2003). All animal protocols were reviewed and approved by the University of Texas Southwestern Medical School Institutional Animal Care Advisory Committee and were in compliance with the rules governing animal use as published by the NIH. Mice were sedated in an isoflurane chamber (5%) for 60 seconds until self-designed coaxial mask could be safely applied. The mask supplied continuous isoflurane (2.0%) and oxygen (98.0%) under positive pressure from a Harvard small animal respirator throughout the procedures. […] Effective doses of the peptides were calculated based on optimal in vitro cell migration effect and on biodistribution calculations of full length TB4 (Mora et al., 1997). […]
(§2) Western blot. […] The protein fraction was isolated from the interphase of the Trizol purification as recommended by the manufacturer; 10 μg of the total protein was loaded and analyzed by Western blot with protein-specific primary antibodies: VEGF, p-Marcks, p-Akt, and GAPDH (1:100) (Santa Cruz), Connexin43 (1:50) (Invitrogen), N-Cadherin (1:5000) (BD Biosciences) and pS368-Connexin43 (1:1000) (Cell Signaling Technology).
(A western blot detects proteins with antibodies after separation by electrophoresis.)

Assay [3] relates to mature coronary vessels. Put plainly: Immunohistochemistry, smooth muscle α-actin positive vessels at infarction border zone. The format is in vivo, mouse. From the text: Animals and Surgical procedures. Mice: Myocardial infarctions were produced in seventy C57BL/6J male mice at 16 weeks of age (25-30 g) by ligation of the left anterior descending (LAD) coronary artery as described (Garner et al., 2003). All animal protocols were reviewed and approved by the University of Texas Southwestern Medical School Institutional Animal Care Advisory Committee and were in compliance with the rules governing animal use as published by the NIH. Mice were sedated in an isoflurane chamber (5%) for 60 seconds until self-designed coaxial mask could be safely applied. The mask supplied continuous isoflurane (2.0%) and oxygen (98.0%) under positive pressure from a Harvard small animal respirator throughout the procedures. Immediately after ligation mice were injected with 200 ng of peptide in […] or […] PBS in collagen intracardially in the infarction border, and with […] PBS intraperitoneally as described (Bock-Marquette et al., 2004). Intraperitoneal injections were repeated every three days after ligation. Effective doses of the peptides were calculated based on optimal in vitro cell migration effect and on biodistribution calculations of full length TB4 (Mora et al., 1997). The inventors administered buprenorphine (0.05 mg/kg) for post-operative pain control. Hearts were removed 1, 14 and 21 days after ligation and processed for further investigations.
Immunohistochemistry. Adult mouse cardiac tissue was fixed in 4% paraformaldehyde and sections were analyzed by immunohistochemistry. Hearts were sectioned at eight levels from the base to the apex. Serial sections were immunostained with primary antibodies against Pecam-1 and Wt-1 (1:50) (Santa Cruz), Smooth muscle a-actin (1:220) (Sigma), Sarcomeric a-actinin (1:200) (Sigma), Connexin43 (1:200) (Invitrogen), pS368-Connexin43 (1:200) (Cell Signaling Technology) as recommended by the manufacturer. Terminal deoxynucleotidyl transferase dUTP nick end labeling (TUNEL) assay was performed using In Situ Cell Detection kit (Roche). Number of sm a-actin positive capillaries and Wt-1 positive cells were counted at the infarction border zone in high power photographs at all levels of the sections in three peptide, TB4 and PBS treated hearts respectively.

Assay [4] has as its system N-Cadherin. Put plainly: Western blot of N-Cadherin in infarcted hearts. The class given is in vivo, mouse. The settings on record: infarction core and border zone, 21 days after infarction.
Description: as §1, §2

The subject of assay [5] is Connexin43. Put plainly: Connexin43 expression (Western blot) and localization (immunohistology) in infarcted hearts. The class given is in vivo, mouse.
Description: as §1, with “applied.” for “applied. The mask supplied continuous isoflurane (2.0%) and oxygen (98.0%) under positive pressure from a Harvard small animal respirator throughout the procedures.”
as §2
Immunohistochemistry. Adult mouse cardiac tissue was fixed in 4% paraformaldehyde and sections were analyzed by immunohistochemistry. […]

Assay [6] relates to keratinocytes. Particulars: within four to five hours after treatment, compared to untreated keratinocytes; cited from earlier work.

Thymosin β4 [TB4]: the “frequency of myocardial beating” value in assay [1] is 100.00+/−5.03 beats/75 sec. Besides, the “Akt activation (phosphoS473-Akt)” value in assay [2] is reported as “increased Akt activation”. For the same substance, the “number of mature, smooth muscle α-actin positive vessels” value in assay [3] (21 days / three weeks, compared to PBS) is on record as “increase the number of mature, smooth muscle a-actin positive vessels”. Besides, the “number of mature coronary vessels” value in assay [3] (two weeks after treatment, compared to PBS (FIG. 10)) is “increases”. Also, the N-Cadherin expression entry in assay [4] was “slight, but non-significant increase; also recorded: slightly upregulated”. For the same substance, in assay [5] (border zone of cardiac infarction), the Cx43 localization result was “stayed primarily at the intercalated discs; also recorded: mainly localized to the intercalated discs”. In addition, in assay [5] (infarcted cores, 21 days after infarction), the Cx43 expression entry is “significant increase in Cx43 expression; also recorded: significant increase in Cx43 level”. In addition, in assay [6], the “increase of keratinocyte migration” value is reported as “two to threefold”.
